Experimental data as given in ChEMBL document CHEMBL3632524, “3-(2,6-Dichloro-benzyloxy)-11-oxo-olean-12-ene-29-oic acid, a semisynthetic derivative of glycyrrhetic acid: synthesis, antiproliferative, apoptotic and anti-angiogenesis activity” (Medchemcomm, 2015).

Legend:
Assay type in all cases: functional, cell-based
[1] = Antiproliferative activity against human MIAPaCa2 cells assessed as cell viability after 48 hrs by MTT assay; conditions: MIA PaCa-2, 48 h
PC-3 = assay: Antiproliferative activity against human PC3 cells assessed as cell viability after 48 hrs by MTT assay; conditions: PC-3, 48 h
HepG2 = assay: Antiproliferative activity against human HepG2 cells assessed as cell viability after 48 hrs by MTT assay; conditions: HepG2, 48 h

Structure (SMILES)	IC50 [1] [µM]	IC50 (PC-3) [µM]	IC50 (HepG2) [µM]
CC1(C)[C@@H](OCc2ccc(Cl)cc2)CC[C@]2(C)[C@H]3C(=O)C=C4[C@@H]5C[C@@](C)(C(=O)O)CC[C@]5(C)CC[C@@]4(C)[C@]3(C)CC[C@@H]12	> 20	> 20	> 20
CC[C@@]1(O)C(=O)OCc2c1cc1n(c2=O)Cc2cc3ccccc3nc2-1 [CAMPTOTHECIN]	0.19	–	0.2
CC(=O)O[C@H]1C(=O)[C@@]2(C)[C@H]([C@H](OC(=O)c3ccccc3)[C@]3(O)C[C@H](OC(=O)[C@H](O)[C@@H](NC(=O)c4ccccc4)c4ccccc4)C(C)=C1C3(C)C)[C@]1(OC(C)=O)CO[C@@H]1C[C@@H]2O [PACLITAXEL]	0.1	0.012	> 100
CC1(C)[C@@H](OCc2ccc(F)cc2)CC[C@]2(C)[C@H]3C(=O)C=C4[C@@H]5C[C@@](C)(C(=O)O)CC[C@]5(C)CC[C@@]4(C)[C@]3(C)CC[C@@H]12	12	9	> 100
CC(C)=CCO[C@H]1CC[C@]2(C)[C@H]3C(=O)C=C4[C@@H]5C[C@@](C)(C(=O)O)CC[C@]5(C)CC[C@@]4(C)[C@]3(C)CC[C@H]2C1(C)C	> 20	> 20	> 20
CO[C@H]1CC[C@]2(C)[C@H]3C(=O)C=C4[C@@H]5C[C@@](C)(C(=O)O)CC[C@]5(C)CC[C@@]4(C)[C@]3(C)CC[C@H]2C1(C)C	> 20	> 20	> 20
CC1(C)[C@@H](OCc2ccccc2[N+](=O)[O-])CC[C@]2(C)[C@H]3C(=O)C=C4[C@@H]5C[C@@](C)(C(=O)O)CC[C@]5(C)CC[C@@]4(C)[C@]3(C)CC[C@@H]12	> 20	> 20	> 20
CC1(C)[C@@H](OCc2ccc(F)c(Br)c2)CC[C@]2(C)[C@H]3C(=O)C=C4[C@@H]5C[C@@](C)(C(=O)O)CC[C@]5(C)CC[C@@]4(C)[C@]3(C)CC[C@@H]12	> 20	> 20	> 20
COc1ccc(CO[C@H]2CC[C@]3(C)[C@H]4C(=O)C=C5[C@@H]6C[C@@](C)(C(=O)O)CC[C@]6(C)CC[C@@]5(C)[C@]4(C)CC[C@H]3C2(C)C)cc1Br	> 20	> 20	> 20
CC1(C)[C@@H](OCc2ccc(Cl)cc2Cl)CC[C@]2(C)[C@H]3C(=O)C=C4[C@@H]5C[C@@](C)(C(=O)O)CC[C@]5(C)CC[C@@]4(C)[C@]3(C)CC[C@@H]12	> 100	18	> 100
CC1(C)[C@@H](OCc2cccc(Cl)c2)CC[C@]2(C)[C@H]3C(=O)C=C4[C@@H]5C[C@@](C)(C(=O)O)CC[C@]5(C)CC[C@@]4(C)[C@]3(C)CC[C@@H]12	> 20	> 20	> 20
